Data taken from PMC11189555, “Aryl amino acetamides prevent Plasmodium falciparum ring development via targeting the lipid-transfer protein PfSTART1” (Nature Communications, 2024).
“And” between values parts separate entries of the source, which are not always exact repeats. Equal entries are not always repeated. Where two headings read alike, the source gives them in different places.

Test system: CR-N330K parasites
Test: Growth inhibition assay (72 h, LDH activity)
Type: cell-based, Plasmodium falciparum
Conditions: for inhibition at up to 5 µM: dilution point 5 of 10, read-out: Growth inhibition assay, NORMALISED
Protocol: Parasite growth assays with inhibitory compounds were performed as per[11] and are fully described in the Supplementary Information.
Molecular biology and transfection of P. falciparum: CRISPR method.
The full 5’ homology region of pfstart1 (either WT, N309K or N330K) was amplified from pPfSTART1-HA-2A-Neo-glmS with the same 5’ BglII primer and a new 3’ primer that replaced with PstI with SpeI and introduced a stop codon. The PCR product was then digested with BglII and SpeI and inserted into similarly digested p1.2 parasite vector2. The p1.2 vector had previously been inserted with a homology region amplified from the 3’ end of the pfstart1 gene (3’HB) to form a second homology block for double recombination. The primers used to amplify 3’HB are listed primers listed in […]
60 μg of p1.2-PfSTART1(WT/N309K/N330K) plasmid was linearised with KasI, precipitated in 3 M sodium acetate and ethanol (70% final concentration) overnight at -20°C. The DNA pellet was washed in cold 70% ethanol and resuspended in cytomix 3.
50 μ M of crRNA ( Table S 2) and 50 μM of tracRNA (Integrated DNA Technologies) were allowed to form a duplex (5 min at 95°C), and Cas9 enzyme (Integrated DNA Technologies) was added, and incubated for 20 min at room temperature 4. This crRNA -tracRNA -Cas9 mix was added to each DNA preparation and transfected to 3D7 ring parasites using the Bio -Rad Gene Pulser at 310 V and 950 μF.
Parasites containing the transfected DNA were selected using 2.5 nM WR99210 (Jacobus). Parasites lines were cloned using limiting dilution. Correct integration was tested by PCR (using primer START_5’UTR.F and START_Int.R1 , Table S 2), and sequencing was done using the primers START_3F and START_Int.R2 (Table S 2).
Growth inhibition assays. Synchronised ring-stage parasites (0.3-0.6% parasitemia, 2% haematocrit) were grown for 72 h in a serial-dilution of the compound under […]
and compound 4. Note that M-833 was first purchased from MolPort (MolPort -002-267-916) then made in-house at WEHI: the differences observed in EC50s across experiments are attributed to the different batches of M -833. For some experiments, 0, 0.25 or 2.5 mM of glucosamine (GlcN) was also added. Experiments were set up in technical duplicates or triplicates. Following a freeze -thaw cycle, lactate dehydrogenase (LDH) activity was assessed as an indicator of parasite growt h 5. 30 μL of parasite culture was incubated for 30 min in the dark with 75 μL Malstat mixture (0.1 M Tris pH 9.0, 20 g/L lactic acid, pH 7.5, 0.2% Triton-X100, 0.5 g/L acetylpyridine adenine dinucleotide (APAD, Sigma), 200 μg/mL nitroblue tetrazolium (NBT; Sigma), 1 μg/mL phenozine ethosulfate (PES; Sigma)). Absorbance was then measured at 650 nm, transformed using the formula below, plotted against the logarithm of the concentrations, and a non-linear regression (log(inhibitor) vs. response, variable slope) was calculated using GraphPad Prism to assess the half-inhibitory […]
Growth inhibition % = (1 − average(sample)− average(uRBC)) ∗ 100 […]
The DMSO samples were also used to assess growth of parasite in the presence of 0.25 and 2.5 mM GlcN (normalised by DMSO in 0 mM GlcN).
Egress, invasion & recovery assay. To measure egress, invasion and follow up recovery in the presence of different compounds, we adapted the method developed in6, using Hyp1-Nluc parasites7. These parasites episomally express the exported PEXEL protein Hyp1 (PF3D7_0113300) tagged with a NanoLuc luciferase (NLuc) and were selected with 2.5 nM WR99210 (Jacobus). Highly synchronised schizonts were obtained using ML10 (LifeArc) and sorbitol synchronisation, and Percoll-purified (the culture was gently layered over 67% Percoll (Cytiva) in RPMI, and centrifuged for 15 min at 1500 g and the schizont layer was collected and washed). In a 96-well plate, […]

**Q.** Which results are given for `CC(C)(Nc1ccc(Cl)c(S(=O)(=O)N2CCOCC2)c1)C(=O)Nc1ccc(F)c(Cl)c1` [W-991]?
**A.** NORMALISED (growth inhibition, LDH absorbance) (2.5 mM GlcN, dilution point 9 of 10 from starting concentration 5 uM): 10.3592 and 12.8289; fold less susceptible than the 3D7 and CR-WT controls (Fig 4C): around 600 fold; fold sensitised on PfSTART1 knock-down with GlcN (Fig 4C): 7.3 fold; EC50 (Fig 4C, 0 mM GlcN, n = 3, read-out: EC50 W-991 (95% confidence interval)): < 700 nM; inhibition at 5 µM (Plasmodium falciparum, 0 mM GlcN, dilution point 1 of 10, starting concentration 5 uM, read-out: NORMALISED (growth inhibition, LDH absorbance)): 84.5%; inhibition (Plasmodium falciparum, 0 mM GlcN, starting concentration 5 uM, dilution point 1 of 10, read-out: Growth inhibition assay, NORMALISED): 90.1%; inhibition (Plasmodium falciparum, 0 mM GlcN, starting concentration 5 uM, dilution point 3 of 10, read-out: Growth inhibition assay, NORMALISED): 50.4%; inhibition (Plasmodium falciparum, 0 mM GlcN, starting concentration 5 uM, dilution point 4 of 10, read-out: Growth inhibition assay, NORMALISED): 20.2%; inhibition at up to 5 µM (Plasmodium falciparum, 0 mM GlcN, starting concentration 5 uM): 14.5%; inhibition (Plasmodium falciparum, 0 mM GlcN, starting concentration 5 uM, dilution point 6 of 10, read-out: Growth inhibition assay, NORMALISED): 9.02%; inhibition (Plasmodium falciparum, 0 mM GlcN, starting concentration 5 uM, dilution point 7 of 10, read-out: Growth inhibition assay, NORMALISED): 9.74%; inhibition (Plasmodium falciparum, 0 mM GlcN, starting concentration 5 uM, dilution point 8 of 10, read-out: Growth inhibition assay, NORMALISED): 9.24%; inhibition (Plasmodium falciparum, 0 mM GlcN, starting concentration 5 uM, dilution point 9 of 10, read-out: Growth inhibition assay, NORMALISED): 12.9%; inhibition (Plasmodium falciparum, 0 mM GlcN, starting concentration 5 uM, dilution point 10 of 10, read-out: Growth inhibition assay, NORMALISED): 5.95%; inhibition at 5 µM (Plasmodium falciparum, 0.25 mM GlcN, dilution point 1 of 10, starting concentration 5 uM, read-out: NORMALISED (growth inhibition, LDH absorbance)): 86.4%; inhibition at 5 µM (Plasmodium falciparum, 0.25 mM GlcN, starting concentration 5 uM, dilution point 1 of 10, read-out: Growth inhibition assay, NORMALISED): 87.6%; inhibition at 5 µM (Plasmodium falciparum, 0.25 mM GlcN, starting concentration 5 uM, dilution point 2 of 10, read-out: Growth inhibition assay, NORMALISED): 84.3%; inhibition at 5 µM (Plasmodium falciparum, 0.25 mM GlcN, starting concentration 5 uM, dilution point 3 of 10, read-out: Growth inhibition assay, NORMALISED): 66.9%; inhibition at 5 µM (Plasmodium falciparum, 0.25 mM GlcN, starting concentration 5 uM, dilution point 4 of 10, read-out: Growth inhibition assay, NORMALISED): 35.9%; inhibition at 5 µM (Plasmodium falciparum, 0.25 mM GlcN, starting concentration 5 uM, dilution point 6 of 10, read-out: Growth inhibition assay, NORMALISED): 2.77%; inhibition at 5 µM (Plasmodium falciparum, 0.25 mM GlcN, starting concentration 5 uM, dilution point 7 of 10, read-out: Growth inhibition assay, NORMALISED): 9.45%; inhibition at 5 µM (Plasmodium falciparum, 0.25 mM GlcN, starting concentration 5 uM, dilution point 8 of 10, read-out: Growth inhibition assay, NORMALISED): 11.2%; inhibition at 5 µM (Plasmodium falciparum, 0.25 mM GlcN, starting concentration 5 uM, dilution point 9 of 10, read-out: Growth inhibition assay, NORMALISED): 16.2%; inhibition at 5 µM (Plasmodium falciparum, 0.25 mM GlcN, starting concentration 5 uM, dilution point 10 of 10, read-out: Growth inhibition assay, NORMALISED): 6.13%; inhibition (Plasmodium falciparum, 2.5 mM GlcN, starting concentration 5 uM, dilution point 1 of 10, read-out: Growth inhibition assay, NORMALISED): 33.9%; inhibition (Plasmodium falciparum, 2.5 mM GlcN, starting concentration 5 uM, dilution point 2 of 10, read-out: Growth inhibition assay, NORMALISED): 33.5%; inhibition (Plasmodium falciparum, 2.5 mM GlcN, starting concentration 5 uM, dilution point 3 of 10, read-out: Growth inhibition assay, NORMALISED): 23.8%; inhibition (Plasmodium falciparum, 2.5 mM GlcN, starting concentration 5 uM, dilution point 4 of 10, read-out: Growth inhibition assay, NORMALISED): 10.8%; inhibition at up to 5 µM (Plasmodium falciparum, 2.5 mM GlcN, starting concentration 5 uM): -13.2%; inhibition (Plasmodium falciparum, 2.5 mM GlcN, starting concentration 5 uM, dilution point 6 of 10, read-out: Growth inhibition assay, NORMALISED): -23.5%; inhibition (Plasmodium falciparum, 2.5 mM GlcN, starting concentration 5 uM, dilution point 7 of 10, read-out: Growth inhibition assay, NORMALISED): -34.6%; inhibition (Plasmodium falciparum, 2.5 mM GlcN, starting concentration 5 uM, dilution point 8 of 10, read-out: Growth inhibition assay, NORMALISED): -22.6%; inhibition (Plasmodium falciparum, 2.5 mM GlcN, starting concentration 5 uM, dilution point 9 of 10, read-out: Growth inhibition assay, NORMALISED): -27.3%; inhibition (Plasmodium falciparum, 2.5 mM GlcN, starting concentration 5 uM, dilution point 10 of 10, read-out: Growth inhibition assay, NORMALISED): -18.7%; EC50 (Plasmodium falciparum, read-out: EC50 W-991 (95% confidence interval), Fig 4C, 0 mM GlcN, n = 3): 623 nM; EC50 (Plasmodium falciparum, read-out: EC50 W-991 (95% confidence interval), Fig 4C, 0.25 mM GlcN, n = 3): 336 nM; EC50 (Plasmodium falciparum, read-out: EC50 W-991 (95% confidence interval), Fig 4C, 2.5 mM GlcN, n = 3): 85.3 nM; EC50 (read-out: EC50 W-991 (95% confidence interval), Fig 4C, 0 mM GlcN, n = 3): 623 nM
